Measured values: publication PMC11012124, “Synthesis of Novel Triazine-Based Chalcones and 8,9-dihydro-7H-pyrimido[4,5-b][1,4]diazepines as Potential Leads in the Search of Anticancer, Antibacterial and Antifungal Agents” (International Journal of Molecular Sciences, 2024)

What was measured:
[1] = system: EKVX; test: cells; conditions: Homo sapiens, 48 h
[2] = system: HCT-15; test: cells; conditions: Homo sapiens, HCT-15, 48 h
[3] = system: SW-620; test: cells; conditions: Homo sapiens, SW-620, 48 h
[4] = system: KM12; test: cells; conditions: Homo sapiens, KM12, 48 h
[5] = system: HCT-116; test: cells; conditions: Homo sapiens, HCT-116, 48 h
[6] = system: COLO 205; test: cells; conditions: Homo sapiens, COLO 205, 48 h
[7] = system: MDA-MB-435; test: cells; conditions: Homo sapiens, MDA-MB-435, 48 h
[8] = system: SNB-19; test: cells; conditions: Homo sapiens, SNB-19, 48 h
[9] = system: U251; test: cells; conditions: Homo sapiens, U-251, 48 h
[10] = system: CCRF-CEM; test: cells; conditions: Homo sapiens, 48 h
[11] = system: UACC-257; test: cells; conditions: Homo sapiens, UACC-257, 48 h
[12] = system: OVCAR-8; test: cells; conditions: Homo sapiens, OVCAR-8, 48 h
[13] = system: SK-MEL-5; test: cells; conditions: Homo sapiens, SK-MEL-5, 48 h
[14] = system: SN12C; test: cells; conditions: Homo sapiens, 48 h
[15] = system: HOP-62; test: cells; conditions: Homo sapiens, HOP-62, 48 h
[16] = system: UO-31; test: cells; conditions: Homo sapiens, UO-31, 48 h
[17] = system: NCI-H322M; test: cells; conditions: Homo sapiens, 48 h
[18] = system: NCI-H226; test: cells; conditions: Homo sapiens, NCI-H226, 48 h
[19] = system: SK-MEL-2; test: cells; conditions: Homo sapiens, SK-MEL-2, 48 h
[20] = system: IGROV1; test: cells; conditions: Homo sapiens, IGROV-1, 48 h
[21] = system: HL-60(TB); test: cells; conditions: Homo sapiens, HL-60, 48 h
[22] = system: SF-268; test: cells; conditions: Homo sapiens, SF-268, 48 h
[23] = system: MALME-3M; test: cells; conditions: Homo sapiens, 48 h
[24] = system: NCI-H23; test: cells; conditions: Homo sapiens, NCI-H23, 48 h
[25] = system: BT-549; test: cells; conditions: Homo sapiens, BT-549, 48 h
[26] = system: RPMI-8226; test: cells; conditions: Homo sapiens, RPMI-8226, 48 h
[27] = system: M14; test: cells; conditions: Homo sapiens, M14, 48 h
[28] = system: SNB-75; test: cells; conditions: Homo sapiens, SNB-75, 48 h
[29] = system: SK-MEL-28; test: cells; conditions: Homo sapiens, SK-MEL-28, 48 h
[30] = system: OVCAR-4; test: cells; conditions: Homo sapiens, OVCAR-4, 48 h, read-out: LC50
[31] = system: SF-295; test: cells; conditions: Homo sapiens, SF-295, 48 h
[32] = system: 786-0; test: cells; conditions: Homo sapiens, 786-0, 48 h
[33] = system: A549/ATCC; test: cells; conditions: Homo sapiens, A549, 48 h
[34] = system: OVCAR-5; test: cells; conditions: Homo sapiens, OVCAR-5, 48 h
[35] = system: ACHN; test: cells; conditions: Homo sapiens, 48 h
[36] = system: NCI-H460; test: cells; conditions: Homo sapiens, NCI-H460, 48 h
[37] = system: 60 cancer cell lines; test: NCI-60 one-dose screen (10 μM); format: cell-based; conditions: Homo sapiens; one dose of 10 μM, mean over 60 cancer cell lines; read-out: Mean Growth Percent (MGP)
Source text: Additionally, the mean of the growth percentages (MGP) of each compound against all the 60 cancer cell lines is also reported, which is used as one of the selection criteria to continue with tests at five concentration doses.

## CN(C)c1nc(NCCNS(=O)(=O)c2ccc(C3=Nc4c(N)nc(N)nc4NC(c4ccc(Cl)cc4)C3)cc2)nc(Nc2ccc(F)cc2)n1 (stereo not drawn) [31e]
[1]
  GI50: 5.05 µM
[1]; read-out: LC50
  CC50: > 100 µM
[2]
  GI50: > 100 µM
[2]; read-out: LC50
  CC50: > 100 µM
[3]
  GI50: 5.95 µM
[3]; read-out: LC50
  CC50: > 100 µM
[4]
  GI50: 3.98 µM
[4]; read-out: LC50
  CC50: > 100 µM
[5]
  GI50: 3.77 µM
[5]; read-out: LC50
  CC50: > 100 µM
[6]
  GI50: 5.65 µM
[6]; read-out: LC50
  CC50: 25.6 µM
[7]
  GI50: 5.17 µM
[7]; read-out: LC50
  CC50: > 100 µM
[8]
  GI50: 5.67 µM
[8]; read-out: LC50
  CC50: > 100 µM
[9]; U251, 48 h
  GI50: 5.14 µM
[9]; read-out: LC50
  CC50: > 100 µM
[10]
  GI50: 2.92 µM
[10]; read-out: LC50
  CC50: > 100 µM
[11]
  GI50: 8.07 µM
[11]; read-out: LC50
  CC50: > 100 µM
[12]
  GI50: > 100 µM
[12]; read-out: LC50
  CC50: > 100 µM
[13]
  GI50: 3.45 µM
[13]; read-out: LC50
  CC50: 14.3 µM
[14]
  GI50: 7.37 µM
[14]; read-out: LC50
  CC50: > 100 µM
[15]
  GI50: > 100 µM
[15]; read-out: LC50
  CC50: > 100 µM
[16]
  GI50: > 100 µM
[16]; read-out: LC50
  CC50: > 100 µM
[17]
  GI50: > 100 µM
[17]; read-out: LC50
  CC50: > 100 µM
[18]
  GI50: > 100 µM
[18]; read-out: LC50
  CC50: > 100 µM
[19]
  GI50: 3.34 µM
[19]; read-out: LC50
  CC50: 14 µM
[20]
  GI50: 9.96 µM
[20]; read-out: LC50
  CC50: > 100 µM
[21]
  GI50: 2.72 µM
[21]; read-out: LC50
  CC50: 13.3 µM
[22]
  GI50: 5.74 µM
[22]; read-out: LC50
  CC50: > 100 µM
[23]
  GI50: 3.86 µM
[23]; read-out: LC50
  CC50: 19.2 µM
[24]
  GI50: 72.7 µM
[24]; read-out: LC50
  CC50: > 100 µM
[25]
  GI50: 3.96 µM
[25]; read-out: LC50
  CC50: 28.7 µM
[26]
  GI50: 3.19 µM
[26]; read-out: LC50
  CC50: > 100 µM
[27]
  GI50: 3.15 µM
[27]; read-out: LC50
  CC50: 11.5 µM
[28]
  GI50: 3.76 µM
[28]; read-out: LC50
  CC50: > 100 µM
[29]
  GI50: 8.22 µM
[29]; read-out: LC50
  CC50: > 100 µM
[30]
  CC50: > 100 µM
[31]
  GI50: 6.2 µM
[31]; read-out: LC50
  CC50: > 100 µM
[32]
  GI50: 6.21 µM
[32]; read-out: LC50
  CC50: > 100 µM
[33]
  GI50: > 100 µM
[33]; read-out: LC50
  CC50: > 100 µM
[34]
  GI50: > 100 µM
[34]; read-out: LC50
  CC50: > 100 µM
[35]
  GI50: > 100 µM
[35]; read-out: LC50
  CC50: > 100 µM
[36]
  GI50: 4.49 µM
[36]; read-out: LC50
  CC50: > 100 µM
[37]
  activity at 10 µM: 30.8%
